The assay concerns ketaminanästhesierten Katze. Nature of the assay: Effect on venous capacity (plethysmograph) and mean arterial pressure in the anaesthetised cat. It counts as in vivo. The conditions noted are these: Dosis 0,1 mg/kg i.v., ketamine-anaesthetised cat. The source says:
Die Wirkung der erfindungsgemäßen Stoffe auf die Venenkapazität wird an der narkotisierten Katze mittels eines Plethysmographen gemessen. Als Vergleich wird in jedem Versuch als Standardsubstanz Natrium-Nitroprussid untersucht.

SMILES strings stand for the structures.

As for `CCOc1ccc2c(c1)CCN1CCC(Nc3ccccc3NC(C)=O)CC21` (single isomer, unassigned) [Beispiel 26], the art.Mitteldruck result is on record as “Ø”.

For the origin of these results see patent EP0203441A2, “Substituted benzoquinolizines, process for their preparation and their use as medicaments” (BAYER AG, priority 1985, dated 1986).
